Measured values from patent US6706704B2 (priority 2001, dated 2004).

How the values were obtained:
[1] = tested on: bulbospinal Aug-I neurons of the VRG; experiment: Iontophoresis of DAMGO and opioid receptor blockers on bulbospinal inspiratory (Aug-I) neurons, extracellular recording; assay type: in vivo, cat; settings: for effect of opioid receptor blocker on DAMGO-mediated depression: naloxonazine 50-90 nA (15 neurons), naltrindole 50-100 nA (10 neurons)
[2] = tested on: CO2 responsiveness of phrenic nerve activity; design: species or system cat; settings: in vivo
[3] = tested on: D1-dopamine receptors (phrenic nerve activity); design: species or system cat; settings: in vivo

## Oc1ccc2c3c1O[C@H]1c4[nH]c5ccccc5c4C[C@@]4(O)[C@@H](C2)N(CC2CC2)CC[C@]314 [Naltrindole]
[1]; iontophoresis
  effect of opioid receptor blocker on DAMGO-mediated depression: without effect on all neurons tested

## Br.C=CCN1CCc2c(cc(O)c(O)c2Cl)C(c2ccccc2)C1 (racemic) [(±)-chloro-APB, (+/−)6-chloro-7,8-dihydroxy-3-allyl-1-phenyl-2,3,4,5-tetrahydro-1H-3-benzazepine hydrobromide]
[2]
  sensitivity of PN activity to CO2: did not significantly alter the sensitivity of PN activity to CO2

## C[C@@H](NC(=O)[C@@H](N)Cc1ccc(O)cc1)C(=O)NCC(=O)N(C)[C@@H](Cc1ccccc1)C(=O)NCCO [DAMGO, D-Ala^2,N-Me-Phe^4,Gly-ol^5-Enkephalin]
[1]; DAMGO without blocker
  DAMGO-mediated depression: 50-85%
[1]; after DAMGO iontophoresis
  time to restoration of control activity during recovery: 60 to 90 s
[1]; iontophoresis 1-3 minutes, 50-90 nA ejecting currents
  action potential frequency: 50-85 % of control
[1]; iontophoresis, 25 neurons, pentobarbital-anesthetized cats
  effect on discharges of Aug-I neurons: depressed discharges of all Aug-I neurons

## C=CCN1CC[C@]23c4c5ccc(O)c4O[C@H]2/C(=N/N=C2\CC[C@@]4(O)[C@H]6Cc7ccc(O)c8c7[C@@]4(CCN6CC=C)[C@H]2O8)CC[C@@]3(O)[C@H]1C5 [Naloxonazine]
[1]; in the presence of Naloxonazine (50-90 nA)
  DAMGO-mediated depression: 20-35%
[1]; iontophoresis
  effect of opioid receptor blocker on DAMGO-mediated depression: blocked DAMGO-mediated depression in all neurons tested

## CN1CCc2cc(Cl)c(O)cc2[C@@H](c2ccccc2)C1 [R(+)-SCH-23390, (R)(+)-7-chloro-8-hydroxy-3-methyl-1-phenyl-2,3,4,5-tetrahydro-1H-3-benzazepine]
[3]
  effect of D1 antagonist on D1 agonist effects: blocked D1 agonist effects
